Reference: US20230146455A1, “TREATMENT OF INFLAMMATORY DISEASES WITH PEPTIDES AND PHARMACEUTICAL COMPOSITIONS” (Yuyu Pharma, Inc., priority 2020, published 2023)
“And” between values parts separate entries of the source, which are not always exact repeats. Identical values can stand only once. Where a SMILES comes first, the peptide text is derived from it. [ ]: non-standard residue; d: D form. Hyp = O=C(O)[C@@H]1C[C@@H](O)CN1

Test system: human PBMCs
Experiment: PBMC cell counts (total, live, viability; trypan blue, Countess) with and without LPS and test articles (Example 9)
Assay type: cell-based
Procedure: Treatment Human PBMCs were pretreated with YY-101, YDE-011 and YDE-043 or reference compound; Xiidra® at various concentration (ranging from 1 nM to 100 uM) for 2 h before stimulation. An equal volume of 0.5% DMSO was used as a vehicle control. Then, the cells were treated with LPS at 5 ug/ml. The supernatants from treated cells were harvested at 24 h and placed in a 96 well for Luminex cytokine & chemokine profiling using a Luminex 200 multiplex assay (Luminex; R&D system, USA).
The main study arm with triplicate wells per group in a 24-well plate: • 1. Blank • 2. PBMC: 0.5% DMSO • 3. PBMC+LPS (5 ug/ml) • 4. PBMC+YY-101 100 uM • 5. PBMC+YY-101 10 uM • 6. PBMC+YY-101 1 uM • 7. PBMC+YY-101 0.1 uM • 8. PBMC+YY-101 0.01 uM • 9. PBMC+LPS (5 ug/ml)+Xiidra®100 uM • 10. PBMC+LPS (5 ug/ml)+Xiidra® 10 uM • 11. PBMC+LPS (5 ug/ml)+Xiidra® 1 uM • 12. PBMC+LPS (5 ug/ml)+Xiidra®0.1 uM • 13. PBMC+LPS (5 ug/ml)+Xiidra®0.01 uM • 14. PBMC+LPS (5 ug/ml)+Xiidra®0.001 uM • 15. PBMC+LPS (5 ug/ml)+YY-101 100 uM • 16. PBMC+LPS (5 ug/ml)+YY-101 10 uM • 17. PBMC+LPS (5 ug/ml)+YY-101 1 uM • 18. PBMC+LPS (5 ug/ml)+YY-101 0.1 uM • 19. PBMC+LPS (5 ug/ml)+YY-101 0.01 uM • 20. PBMC+LPS (5 ug/ml)+YY-101 0.001 uM • 21. PBMC+LPS (5 ug/ml)+YDE-011 100 uM • 22. PBMC+LPS (5 ug/ml)+YDE-011 10 uM • 23. PBMC+LPS (5 ug/ml)+YDE-011 1 uM • 24. PBMC+LPS (5 ug/ml)+YDE-011 0.1 uM • 25. PBMC+LPS (5 ug/ml)+YDE-011 0.01 uM • 26. PBMC+LPS (5 ug/ml)+YDE-011 0.001 uM • 27. PBMC+LPS (5 ug/ml)+YDE-043 100 uM • 28. PBMC+LPS (5 ug/ml)+YDE-043 10 uM • 29. PBMC+LPS (5 ug/ml)+YDE-043 1 uM • 30. PBMC+LPS (5 ug/ml)+YDE-043 0.1 uM • 31. PBMC+LPS (5 ug/ml)+YDE-043 0.01 uM • 32. PBMC+LPS (5 ug/ml)+YDE-043 0.001 uM
The number of PBMCs was measured after 24 hr of treatment. The culture both and trypan blue were diluted 1:1 and 10 ul was added to Countess cell counting chamber (Thermo fisher, USA). The number of PBMCs was measured using a Countess automated cell counter (Thermo fisher, USA).

[1] = PBMC + LPS(5 ug/ml) + compound 0.001 uM, 24 hr
[2] = PBMC + LPS(5 ug/ml) + compound 0.01 uM, 24 hr
[3] = PBMC + LPS(5 ug/ml) + compound 0.1 uM, 24 hr
[4] = PBMC + LPS(5 ug/ml) + compound 1 uM, 24 hr
[5] = PBMC + LPS(5 ug/ml) + compound 10 uM, 24 hr
[6] = PBMC + LPS(5 ug/ml) + compound 100 uM, 24 hr
[7] = PBMC + LPS(5 ug/ml) + test article 0.001 uM, Mean
[8] = PBMC + LPS(5 ug/ml) + test article 0.001 uM, single replicates
[9] = PBMC + LPS(5 ug/ml) + test article 0.01 uM, Mean
[10] = PBMC + LPS(5 ug/ml) + test article 0.01 uM, single replicates
[11] = PBMC + LPS(5 ug/ml) + test article 0.1 uM, Mean
[12] = PBMC + LPS(5 ug/ml) + test article 0.1 uM, single replicates
[13] = PBMC + LPS(5 ug/ml) + test article 1 uM, Mean
[14] = PBMC + LPS(5 ug/ml) + test article 1 uM, single replicates
[15] = PBMC + LPS(5 ug/ml) + test article 10 uM, Mean
[16] = PBMC + LPS(5 ug/ml) + test article 10 uM, single replicates
[17] = PBMC + LPS(5 ug/ml) + test article 100 uM, Mean
[18] = PBMC + LPS(5 ug/ml) + test article 100 uM, single replicates
[19] = PBMC + LPS(5 ug/ml), test article 0.001 uM, Mean
[20] = PBMC + LPS(5 ug/ml), test article 0.001 uM, single replicates
[21] = PBMC + LPS(5 ug/ml), test article 0.01 uM, Mean
[22] = PBMC + LPS(5 ug/ml), test article 0.01 uM, single replicates
[23] = PBMC + LPS(5 ug/ml), test article 0.1 uM, Mean
[24] = PBMC + LPS(5 ug/ml), test article 0.1 uM, single replicates
[25] = PBMC + LPS(5 ug/ml), test article 1 uM, Mean
[26] = PBMC + LPS(5 ug/ml), test article 1 uM, single replicates
[27] = PBMC + LPS(5 ug/ml), test article 10 uM, Mean
[28] = PBMC + LPS(5 ug/ml), test article 10 uM, single replicates

In the case of `CC(C)C[C@H](NC(=O)CNC(=O)[C@H](CC(=O)O)NC(=O)[C@H](CCC(N)=O)NC(=O)CNC(=O)[C@@H]1C[C@@H](O)CN1)C(=O)N[C@@H](C)C(=O)NCC(=O)N1CCC[C@H]1C(=O)N[C@@H](CCCCN)C(=O)O` [YY-101] (H-[Hyp]GQDGLAGPK-OH; N-terminus and C-terminus assumed), the Live cell [1] is reported as 6.5 ± 0.4 10^5/ml, the Total cell [1] is reported as 7.7 ± 0.6 10^5/ml and the Live cell [2] is reported as 6.2 ± 0.1 10^5/ml. For the same molecule, the Total cell [2] was 8.1 ± 0.6 10^5/ml, the Live cell [3] was 5.9 ± 0.3 10^5/ml and the Total cell [3] was 7.8 ± 0.8 10^5/ml. The Live cell [4] was 6.5 ± 0.3 10^5/ml, the Total cell [4] was 9.8 ± 0.6 10^5/ml and the Live cell [5] was 6.7 ± 0.5 10^5/ml. For the same molecule, the Total cell [5] was 9.1 ± 1.1 10^5/ml, the Live cell [6] was 5.8 ± 0.4 10^5/ml and the Total cell [6] was 7.8 ± 1.0 10^5/ml. The Live cell [7] was 6.5 10^5/ml, the “Live cell (10^5/ml)” value [7] was 6.5 10^5/ml and the “Live cell, Mean” value [7] was 6.5 10^5/ml. The Live cell (PBMC + LPS(5 ug/ml) + test article 0.001 uM, individual replicates (1st, 2nd, 3rd)) was 5.7 10^5/ml and 7.1 10^5/ml and 6.6 10^5/ml, the Live cell [8] was 5.7 10^5/ml and 7.1 10^5/ml and 6.6 10^5/ml and the “Live cell (10^5/ml)” value [8] was 5.7 10^5/ml and 7.1 10^5/ml and 6.6 10^5/ml. The Live cell (PBMC + LPS(5 ug/ml) + test article 0.001 uM, single replicates (1st, 2nd, 3rd)) was 5.7 10^5/ml and 7.1 10^5/ml and 6.6 10^5/ml, the Live cell [9] was 6.2 10^5/ml and the “Live cell (10^5/ml)” value [9] was 6.2 10^5/ml. The “Live cell, Mean” value [9] was 6.2 10^5/ml, the Live cell (PBMC + LPS(5 ug/ml) + test article 0.01 uM, individual replicates (1st, 2nd, 3rd)) was 6.4 10^5/ml and 6.0 10^5/ml and 6.1 10^5/ml and the Live cell [10] was 6.4 10^5/ml and 6.0 10^5/ml and 6.1 10^5/ml. The “Live cell (10^5/ml)” value [10] was 6.4 10^5/ml and 6.0 10^5/ml and 6.1 10^5/ml, the Live cell (PBMC + LPS(5 ug/ml) + test article 0.01 uM, single replicates (1st, 2nd, 3rd)) was 6.4 10^5/ml and 6.0 10^5/ml and 6.1 10^5/ml and the Live cell [11] was 5.9 10^5/ml. The “Live cell (10^5/ml)” value [11] was 5.9 10^5/ml, the “Live cell, Mean” value [11] was 5.9 10^5/ml and the Live cell [12] was 6.2 10^5/ml (2×) and 5.2 10^5/ml. For the same molecule, the “Live cell (10^5/ml)” value [12] was 6.2 10^5/ml (2×) and 5.2 10^5/ml, the Live cell (PBMC + LPS(5 ug/ml) + test article 0.1 uM, single replicates (1st, 2nd, 3rd)) was 6.2 10^5/ml (2×) and 5.2 10^5/ml and the Live cell [13] was 6.5 10^5/ml. For the same molecule, the “Live cell (10^5/ml)” value [13] was 6.5 10^5/ml, the “Live cell, Mean” value [13] was 6.5 10^5/ml and the Live cell [14] was 6.3 10^5/ml and 7.1 10^5/ml and 6.2 10^5/ml. The “Live cell (10^5/ml)” value [14] was 6.3 10^5/ml and 7.1 10^5/ml and 6.2 10^5/ml, the Live cell (PBMC + LPS(5 ug/ml) + test article 1 uM, single replicates (1st, 2nd, 3rd)) was 6.3 10^5/ml and 7.1 10^5/ml and 6.2 10^5/ml and the Live cell [15] was 6.7 10^5/ml. For the same molecule, the “Live cell (10^5/ml)” value [15] was 6.7 10^5/ml, the “Live cell, Mean” value [15] was 6.7 10^5/ml and the Live cell [16] was 6.0 10^5/ml and 6.4 10^5/ml and 7.6 10^5/ml. The “Live cell (10^5/ml)” value [16] was 6.0 10^5/ml and 6.4 10^5/ml and 7.6 10^5/ml, the Live cell (PBMC + LPS(5 ug/ml) + test article 10 uM, single replicates (1st, 2nd, 3rd)) was 6.0 10^5/ml and 6.4 10^5/ml and 7.6 10^5/ml and the Live cell [17] was 5.8 10^5/ml. The “Live cell (10^5/ml)” value [17] was 5.8 10^5/ml, the “Live cell, Mean” value [17] was 5.8 10^5/ml and the Live cell [18] was 6.3 10^5/ml and 6.2 10^5/ml and 5.0 10^5/ml. The “Live cell (10^5/ml)” value [18] was 6.3 10^5/ml and 6.2 10^5/ml and 5.0 10^5/ml, the Live cell (PBMC + LPS(5 ug/ml) + test article 100 uM, single replicates (1st, 2nd, 3rd)) was 6.3 10^5/ml and 6.2 10^5/ml and 5.0 10^5/ml and the Live cell (PBMC + LPS(5 ug/ml), 0.001 uM, Mean) was 6.5 10^5/ml. The Live cell (PBMC + LPS(5 ug/ml), 0.001 uM, single replicates) was 5.7 10^5/ml and 7.1 10^5/ml and 6.6 10^5/ml, the Live cell (PBMC + LPS(5 ug/ml), 0.01 uM, Mean) was 6.2 10^5/ml and the Live cell (PBMC + LPS(5 ug/ml), 0.01 uM, single replicates) was 6.4 10^5/ml and 6.0 10^5/ml and 6.1 10^5/ml. For the same molecule, the Live cell (PBMC + LPS(5 ug/ml), 0.1 uM, Mean) was 5.9 10^5/ml, the Live cell (PBMC + LPS(5 ug/ml), 0.1 uM, single replicates) was 6.2 10^5/ml (2×) and 5.2 10^5/ml and the Live cell (PBMC + LPS(5 ug/ml), 1 uM, Mean) was 6.5 10^5/ml. The Live cell (PBMC + LPS(5 ug/ml), 1 uM, single replicates) was 6.3 10^5/ml and 7.1 10^5/ml and 6.2 10^5/ml, the Live cell (PBMC + LPS(5 ug/ml), 10 uM, Mean) was 6.7 10^5/ml and the Live cell (PBMC + LPS(5 ug/ml), 10 uM, single replicates) was 6.0 10^5/ml and 6.4 10^5/ml and 7.6 10^5/ml. For the same molecule, the Live cell (PBMC + LPS(5 ug/ml), 100 uM, Mean) was 5.8 10^5/ml, the Live cell (PBMC + LPS(5 ug/ml), 100 uM, single replicates) was 6.3 10^5/ml and 6.2 10^5/ml and 5.0 10^5/ml and the Live cell [19] was 6.5 10^5/ml. For the same molecule, the Total cell count [19] was 7.7 10^5/ml, the Live cell [20] was 5.7 10^5/ml and 7.1 10^5/ml and 6.6 10^5/ml and the Total cell count [20] was 6.7 10^5/ml and 8.8 10^5/ml and 7.5 10^5/ml. The Viability [20] was 84.0% and 80.0% and 89.0%, the Live cell [21] was 6.2 10^5/ml and the Total cell count [21] was 8.1 10^5/ml. The Live cell [22] was 6.4 10^5/ml and 6.0 10^5/ml and 6.1 10^5/ml, the Total cell count [22] was 9.2 10^5/ml and 8.1 10^5/ml and 7.0 10^5/ml and the Viability [22] was 70.0% and 75.0% and 87.0%. The Live cell [23] was 5.9 10^5/ml, the Total cell count [23] was 7.8 10^5/ml and the Live cell [24] was 6.2 10^5/ml (2×) and 5.2 10^5/ml. For the same molecule, the Total cell count [24] was 9.3 10^5/ml and 6.7 10^5/ml and 7.5 10^5/ml, the Viability [24] was 67.0% and 77.0% and 83.0% and the Live cell [25] was 6.5 10^5/ml. For the same molecule, the Total cell count [25] was 9.8 10^5/ml, the Live cell [26] was 6.3 10^5/ml and 7.1 10^5/ml and 6.2 10^5/ml and the Total cell count [26] was 8.8 10^5/ml and 9.7 10^5/ml and 11.0 10^5/ml. The Viability [26] was 72.0% and 73.0% and 55.0%, the Live cell [27] was 6.7 10^5/ml and the Total cell count [27] was 9.1 10^5/ml. The Live cell [28] was 6.0 10^5/ml and 6.4 10^5/ml and 7.6 10^5/ml, the Total cell count [28] was 7.3 10^5/ml and 9.0 10^5/ml and 11.0 10^5/ml and the Viability [28] was 83.0% and 71.0% and 67.0%.
